In US4977139A, “Aqueous elcatonin solution composition” (Toyo Jozo Company, Ltd., priority 1988, dated 1990):

Experiment: Severe test against heat (storage at 45° C. for 3 months, residual rate by HPLC)
Type: physicochemical
Method: In preparation of 0.1 mM sodium acetate pH buffer of pH 5.5 in Example 2, four kinds of solutions were prepared so that concentration of sodium chloride was 3 mM, 10 mM, 154 mM and 500 mM. Elcatonin was dissolved therein so that elcatonin concentration was 7 μg/ml. Each of the compositions was filled in an ampule in the same manner as in Example 1 to prepare elcatonin injections having four kinds of ionic strength. The resulting elcatonin injections were stored at 45° C. for 3 months and residual rate was obtained under the same conditions as in Test Example 1.

## 1-butyric acid-7-(L-2-aminobutyric acid)-26- o L-aspartic acid-27-L-valine-29-L-alanine-calcitonin (salmon) [Elcatonin]
NaCl 3 mM, ionic strength 0.003, 0.1 mM sodium acetate pH 5.5, elcatonin 7 μg/ml
  Residual rate (%): 50%
NaCl 10 mM, ionic strength 0.010, 0.1 mM sodium acetate pH 5.5, elcatonin 7 μg/ml
  Residual rate (%): 79%
NaCl 154 mM, ionic strength 0.154, 0.1 mM sodium acetate pH 5.5, elcatonin 7 μg/ml
  Residual rate (%): 98%
NaCl 500 mM, ionic strength 0.500, 0.1 mM sodium acetate pH 5.5, elcatonin 7 μg/ml
  Residual rate (%): 97%
